As usually defined, the IC50 is the concentration needed to halve the response being measured.

Structures can show the parent of a compound that is named as a salt.

In one test the test system is HCV RNA replication (replicon cell lines Huh-7, 5.2 and ET). Nature of the test: Cell-Based Luciferase Reporter HCV RNA Replication Assay. Conditions: Hepatitis C virus, Huh-7, 96 h, Huh-7, 5.2 or ET replicon cells, luciferase counts after 4 days incubation; read-out: IC50. On the technique in general: A reporter such as luciferase makes a cellular process visible.
For the compound `C[C@H]1CC[C@H](C(=O)N(c2cc(C3=CCCCC3)sc2C(=O)O)C2CCN(C#N)CC2)CC1` [Compound 102, 3-[(1-cyano-piperidin-4-yl)-(trans-4-methyl-cyclohexanecarbonyl)-amino]-5-cyclohex-1-enyl-thiophene-2-carboxylic acid], the concentration for half-maximal inhibition (IC50) was below 5 µM.

Take `CC1CCC(C(=O)N(c2cc(C3=CCCCC3)sc2C(=O)O)C2CCN(c3ncccn3)CC2)CC1` (stereo not drawn) [Compound 103, 5-cyclohex-1-enyl-3-[(trans, 4-methyl-cyclohexanecarbonyl)-(1-pyrimidin-2-yl-piperidin-4-yl)-amino]-thiophene-2-carboxylic acid]: the IC50 is below 5 µM.

In the case of `CC1CCC(C(=O)N(c2cc(C3=CCCCC3)sc2C(=O)O)C2CCC(n3ccnn3)CC2)CC1` (stereo not drawn) [Compound 104, 5-cyclohex-1-enyl-3-[(trans-4-methyl-cyclohexanecarbonyl)-(cos-4-[1,2,3]triazol-1-yl-cyclohexyl)-amino]-thiophene-2-carboxylic acid], the IC50 was below 5 µM.

Turning to `COCC(COC)N(c1cc(C2=CCCCC2)sc1C(=O)O)C(=O)[C@H]1CC[C@H](C)CC1` [Compound 111, 5-cyclohex-1-enyl-3-[(2-methoxy-1-methoxymethyl-ethyl)-(trans-4-methyl-cyclohexanecarbonyl)-amino]-thiophene-2-carboxylic acid], the IC50 is below 5 µM.

With `COC1CCC(N(C(=O)C2CCC(C)CC2)c2cc(C3CCCCC3)sc2C(=O)O)CC1` (stereo not drawn) [Compound 112, 5-cyclohexyl-3-[(4-trans-methoxy-cyclohexyl)-(4-trans-methyl-cyclohexanecarbonyl)-amino]-thiophene-2-carboxylic acid], the concentration for half-maximal inhibition (IC50) was below 5 µM.

Turning to `COC1CCC(N(C(=O)C2CCC(C)CC2)c2cc(C3CCC(=O)CC3)sc2C(=O)O)CC1` (stereo not drawn) [Compound 113, 3-[(4-trans-methoxy-cyclohexyl)-(4-trans-methyl-cyclohexanecarbonyl)-amino]-5-(4-oxo-cyclohexyl)-thiophene-2-carboxylic acid], the IC50 is below 5 µM.

Turning to `COCOC1CCC(N(C(=O)C2CCC(C)CC2)c2cc(C3=CCC(C)(C)CC3)sc2C(=O)O)CC1` (stereo not drawn) [Compound 114, 5-(4,4-dimethyl-cyclohex-1-enyl)-3-[(4-trans-methoxymethoxy-cyclohexyl)-(4-trans-methyl-cyclohexanecarbonyl)-amino]-thiophene-2-carboxylic acid], the IC50 is below 5 µM.

For the compound `CC1CCC(C(=O)N(c2cc(C3=CCCCC3)sc2C(=O)O)C2CC=CCC2)CC1` (stereo not drawn) [Compound 115, RS-5-cyclohex-1-enyl-3-[cyclohex-3-enyl-(4-trans-methyl-cyclohexanecarbonyl)-amino]-thiophene-2-carboxylic acid], the IC50 is below 5 µM.

Consider `COCOC1CCC(N(C(=O)C2CCC(C)CC2)c2cc(C3CCC(C)(C)CC3)sc2C(=O)O)CC1` (stereo not drawn) [Compound 116, 5-(4,4-dimethyl-cyclohexyl)-3-[(4-trans-methoxymethoxy-cyclohexyl)-(4-trans-methyl-cyclohexanecarbonyl)-amino]-thiophene-2-carboxylic acid], for which the half-maximal inhibitory concentration (IC50) is below 5 µM.

As to `CC1(C)CCC(c2cc(N(C(=O)[C@H]3CC[C@H](C)CC3)[C@H]3CC[C@@H](n4cncn4)CC3)c(C(=O)O)s2)CC1` [Compound 117, 5-(4,4-dimethyl-cyclohexyl)-3-[(trans-4-methyl-cyclohexanecarbonyl)-(cis-4-[1,2,4]triazol-1-yl-cyclohexyl)-amino]-thiophene-2-carboxylic acid; hydrochloride], the IC50 was below 5 µM.

For the compound `CC1CCC(C(=O)N(c2cc(C3CCC(C)(C)CC3)sc2C(=O)O)C2CCC(n3cncn3)CC2)CC1` (stereo not drawn) [Compound 118, 5-(4,4-dimethyl-cyclohexyl)-3-[(trans-4-methyl-cyclohexanecarbonyl)-(trans-4-[1,2,4]triazol-1-cyclohexyl)-amino]-thiophene-2-carboxylic acid; hydrochloride], the half-inhibitory concentration (IC50) was below 5 µM.

Take `COC1CCC(N(C(=O)C2CCC(C)CC2)c2cc(C3CCC(F)(F)CC3)sc2C(=O)O)CC1` (stereo not drawn) [Compound 122, 5-(4,4-difluoro-cyclohexyl)-3-[(4-trans-methoxy-cyclohexyl)-(4-trans-methyl-cyclohexanecarbonyl)-amino]-thiophene-2-carboxylic acid]: the IC50 was below 5 µM.

Consider `COC1CCC(N(C(=O)C2CCC(C)CC2)c2cc(C3CC=C(F)CC3)sc2C(=O)O)CC1` (stereo not drawn) [Compound 123, RS-5-(4-fluoro-cyclohex-3-enyl)-3-[(4-trans-methoxy-cyclohexyl)-(4-trans-methyl-cyclohexanecarbonyl)-amino]-thiophene-2-carboxylic acid], for which the IC50 is below 5 µM.

For `CCOCO[C@H]1CC[C@H](N(c2cc(C3=CCCCC3)sc2C(=O)O)C(=O)[C@H]2CC[C@H](C)CC2)CC1` [Compound 125, 5-cyclohex-1-enyl-3-[(trans-4-ethoxymethoxy-cyclohexyl)-(trans-4-methyl-cyclohexanecarbonyl)-amino]-thiophene-2-carboxylic acid], the half-inhibitory concentration (IC50) was below 5 µM.

As to `CC1CCC(C(=O)N(c2cc(C3=CCCCC3)sc2C(=O)O)C2CCN(c3ccccc3)CC2)CC1` (stereo not shown) [Compound 127, 5-cyclohex-1-enyl-3-[(trams, 4-methyl-cyclohexanecarbonyl)-(1-phenyl-piperidin-4-yl)-amino]-thiophene-2-carboxylic acid], the IC50 was below 5 µM.

Consider `CCN1CC2(CCC(N(C(=O)C3CCC(C)CC3)c3cc(C4=CCCCC4)sc3C(=O)O)CC2)CC1=O` (stereo not drawn) [Compound 129, 5-cyclohex-1-enyl-3-[trans(2-ethyl-33-oxo-2-aza-spiro[4.5]dec-8-yl)-(trans-4-methylcyclohexanecarbonyl)-amino]-thiophene-2-carboxylic acid], for which the IC50 is below 5 µM.

Consider `CC(C)C(=O)N[C@H]1CC[C@@H](N(c2cc(C3=CCCCC3)sc2C(=O)O)C(=O)[C@H]2CC[C@H](C)CC2)CC1` [Compound 133, 5-cyclohex-1-enyl-3-[(cis-4-isobutyrylamino-cyclohexyl)-(trans-4-methyl-cyclohexanecarbonyl)-amino]-thiophene-2-carboxylic acid], for which the 50% inhibitory concentration (IC50) is below 5 µM.

With `CC(C)C(=O)N[C@H]1CC[C@H](N(c2cc(C3=CCCCC3)sc2C(=O)O)C(=O)[C@H]2CC[C@H](C)CC2)CC1` [Compound 134, 5-cyclohex-1-enyl-3-[(trans-4-isobutyrylamino-cyclohexyl)-(trans-4-methyl-cyclohexanecarbonyl)-amino]-thiophene-2-carboxylic acid], the half-maximal inhibitory concentration (IC50) was below 5 µM.

On to `CC1(C)CCC(c2cc(N(C(=O)[C@H]3CC[C@H](C)CC3)[C@H]3CC[C@H](n4ccnn4)CC3)c(C(=O)O)s2)CC1` [Compound 135, 5-(4,4-dimethyl-cyclohexyl)-3-[(trans-4-methyl-cyclohexanecarbonyl)-(trans-4-[1,2,3]triazol-1-yl-cyclohexyl)-amino]-thiophene-2-carboxylic acid], for which the concentration for half-maximal inhibition (IC50) is below 5 µM.

Consider `C[C@H]1CC[C@H](C(=O)N(c2ccc3c(c2)OCO3)c2cc(C3=CCCCC3)sc2C(=O)O)CC1` [Compound 136, 3-[benzo[1,3]dioxol-5-yl-(trans-4-methyl-cyclohexanecarbonyl)-amino]-5-cyclohex-1-enyl-thiophene-2-carboxylic acid], for which the 50% inhibitory concentration (IC50) was below 5 µM.

Turning to `COC1CCC(N(C(=O)C2CCC(C)CC2)c2cc(C3CCC(F)CC3)sc2C(=O)O)CC1` (stereo not drawn) [Compound 137, 5-(4-ciz-trans-fluoro-cyclohexyl)-3-[(4-trans-methoxy-cyclohexyl)-(4-trans-methyl-cyclohexanecarbonyl)-amino]-thiophene-2-carboxylic acid], the 50% inhibitory concentration (IC50) is below 5 µM.

On to `COC1CCC(N(C(=O)C2CCC(C)CC2)c2cc(C3=CCCC(C)(C)C3)sc2C(=O)O)CC1` (stereo not drawn) [Compound 138, 5-(5,5-dimethyl-cyclohex-1-enyl)-3-[(4-trans-methoxy-cyclohexyl)-(4-trans-methyl-cyclohexanecarbonyl)-amino]-thiophene-2-carboxylic acid], for which the IC50 was below 5 µM.

Still in this test, the particulars now being: Huh-7, 5.2 or ET replicon cells, luciferase counts after 4 days incubation; read-out: IC50.
As for `CC1CCC(C(=O)N(c2cc(C3=CCCCC3)sc2C(=O)O)C2CCC(n3ccnn3)CC2)CC1` (stereo not drawn) [Compound 105, 5-cyclohex-1-enyl-3-[(trans-4-methyl-cyclohexanecarbonyl)-(trans-4-[1,2,3]triazol-1-cyclohexyl)-amino]-thiophene-2-carboxylic acid], the half-inhibitory concentration (IC50) is below 5 µM.

Turning to `CC1CCC(C(=O)N(c2cc(C3=CCCCC3)sc2C(=O)O)C2CCC(C)(C#N)CC2)CC1` (stereo not drawn) [Compound 106, 3-[(trans-4-cyano-4-methyl-cyclohexyl)-(trans-4-methylcyclohexanecarbonyl)-amino]-5-cyclohex-1-enyl-thiophene-2-carboxylic acid], the half-inhibitory concentration (IC50) was below 5 µM.

In the case of `CC1CCC(C(=O)N(c2cc(C3=CCCCC3)sc2C(=O)O)C2CCC3(CC2)CC(=O)N(C)C3)CC1` (stereo not drawn) [Compound 128, 5-cyclohex-1-enyl-3-[(trans-4-methyl-cyclohexanecarbonyl)-trans(2-methyl-3-oxo-2-aza-spiro[4.5]dec-8-yl)-amino]-thiophene-2-carboxylic acid], the IC50 was below 5 µM.

In the case of `CCN1CC2(CCC(N(C(=O)C3CCC(C)CC3)c3cc(C4=CCCCC4)sc3C(=O)O)CC2)CC1=O` (stereo not drawn) [Compound 130, 5-cyclohex-1-enyl-3-[cis(2-ethyl-3-oxo-2-aza-spiro[4.5]dec-8-yl)-(trans-4-methylcyclohexanecarbonyl)-amino]-thiophene-2-carboxylic acid], the half-inhibitory concentration (IC50) is below 5 µM.

Consider `COCC1CCC(N(C(=O)C2CCC(C)CC2)c2cc(C3=CCCCC3)sc2C(=O)O)CC1` (stereo not drawn) [Compound 131, 5-cyclohex-1-enyl-3-[(4-cis-methoxymethyl-cyclohexyl)-(4-trans-methyl-cyclohexanecarbonyl)-amino]-thiophene-2-carboxylic acid], for which the 50% inhibitory concentration (IC50) is below 5 µM.

With `COCC1CCC(N(C(=O)C2CCC(C)CC2)c2cc(C3=CCCCC3)sc2C(=O)O)CC1` (stereo not drawn) [Compound 132, 5-cyclohex-1-enyl-3-[(4-trans-methoxymethyl-cyclohexyl)-(4-trans-methyl-cyclohexanecarbonyl)-amino]-thiophene-2-carboxylic acid], the 50% inhibitory concentration (IC50) was below 5 µM.
